In brackets after ≈: the same amount, converted by molar mass. Structures can show the parent of a compound that is named as a salt.

Consider 4 compounds from article PMC9502776, “Assessment of the Effects of Chitosan, Chitooligosaccharides and Their Derivatives on Lemna minor” (Molecules, 2022).

Data set [1] has as its system Lemna minor. Description: Lemna minor growth inhibition assay (OECD Test No. 221). It counts as in vivo. The following applies: for aquatic toxicity category according to U.S. EPA: based on the calculated EC50 values against Lemna minor. The procedure: Four types of polymers were tested, namely low- (ChiS), medium- (ChiM) and high- (ChiL) molecular-weight chitosan and chitosan with a degree of deacetylation of approximately 50% (Chi50). The chitosan samples were tested in three concentrations (50 mg/L, 500 mg/L and 5000 mg/L) and were obtained by dissolving the polymers in 0.3% acetic acid, followed by dilution with culture medium in a 1:2 ratio.
Four types of chitooligosaccharides were tested: D-glucosamine hydrochloride (G), N-acetyl-D-glucosamine (NAG or A), chitobiose dihydrochloride (2G), and carboxymethyl chitosan (CMChi). Three chitooligosaccharides (G, NAG, 2G) were tested in three concentrations: 5 mg/L, 50 mg/L and 250 mg/L, being dissolved directly into L. minor culture medium. CMChi was tested in four concentrations (50 mg/L, 250 mg/L, 500 mg/L and 5000 mg/L) and the solutions were prepared by dissolving the polymer directly in L. minor culture medium.
Lemna minor, the common duckweed, was used as a test organism for the assessment of growth response of the tested chitosan samples and chitooligosaccharides through a growth inhibition assay. Standard conditions as described in OECD guideline were maintained during both L. minor culture and growth inhibition assay.
The effects of the chitosan samples and the chitooligosaccharides were tested using a number of 10 fronds per test vessel, with an exposure period of 7 days. In the same conditions, two controls were tested: a negative control (C−), represented by culture medium, and a positive control (C+), represented by 0.5% zinc chloride. All samples and controls were tested in triplicate.
The endpoints of the growth inhibition test were represented by number of fronds, which was used for the plotting of dose–response curves and the calculation of half maximal effective concentration (EC50). The tested samples were classified into aquatic ecotoxicity categories according to U.S. EPA [47] based on the calculated EC50 values: very highly toxic (<0.1 mg/L), highly toxic (>0.1–1 mg/L), moderately toxic (>1–10 mg/L), slightly toxic (>10–100 mg/L) and practically non-toxic (>100 mg/L).
PAST software was used for the statistical analysis of data, with Quest Graph™ EC50 Calculator [65] being used for the calculation of EC50 values. The Shapiro–Wilk W test was used for assessing the normality of the data, with the distribution analysis being followed by an ANOVA analysis. The normally distributed data were analyzed with parametric tests, the homogeneity of variance among treatments was determined through Levene’s test, with Tuckey’s post hoc test being used for the analysis of variances. The non-normally distributed data were analyzed with the Kruskal–Wallis test, variances being further analyzed using Dunn’s post hoc test. The Pearson linear r correlation test was used for all correlation analysis. The differences were considered significant for p values < 0.05.

The subject of data set [2] is Lemna trisulca. Further details: method as in PMID 17074410. The note with it: ref [48], cited from earlier work.
Data set [3] concerns Lemna gibba. On the set-up: method as in PMID 16666961. The following applies: D-glucosamine 50 mM, ref [49]; cited from earlier work.
Where [4] appears, read: number of fronds, exposure period of 7 days.

With `Cl.N[C@H]1[C@H](O[C@H]2[C@H](O)[C@@H](N)C(O)O[C@@H]2CO)O[C@H](CO)[C@@H](O)[C@@H]1O` (some centres unmarked) [2G, chitobiose dihydrochloride], the “EC50 against Lemna minor” value in data set [1] (setting [4]) was determined as 266.36 µg/mL.
Regarding `CC(=O)N[C@@H]1[C@@H](O)[C@H](O)[C@@H](CO)O[C@@H]1O` [A, N-acetyl-D-glucosamine], the “aquatic toxicity category according to U.S. EPA” value in data set [1] is reported as “practically non-toxic (practically non-toxic (>100 mg/L))”. Further, in data set [1] (setting [4]), the “EC50 against Lemna minor” value worked out at 678.22 µg/mL (≈ 3.07 mM).
On to `N[C@H]1C(O)O[C@H](CO)[C@@H](O)[C@@H]1O` (stereo partly drawn) [D, D-glucosamine], for which the “level of zeaxanthin and antheraxanthin, times higher than the control” value in data set [2] (Lemna trisulca) was “approximately 30 times”. Moreover, in data set [2] (even at a concentration of 0.01%), the “inhibition of violaxanthin synthesis from zeaxanthin and antheraxanthin” value is given as “induced the inhibition”. Besides, the “inhibition of the respiration rate” value in data set [3] is 30%.
Take `N[C@H]1C(O)O[C@H](CO)[C@@H](O)[C@@H]1O` (stereo partly drawn) [G, D-glucosamine hydrochloride]: the half-maximal effective concentration (EC50) (commonly the concentration at which the effect is half-maximal) in data set [1] (Lemna minor, 168 h, number of fronds, exposure period of 7 days, read-out: EC50 against Lemna minor) was 11.6 µg/mL. Besides, the “aquatic toxicity category according to U.S. EPA” value in data set [1] is on record as “slightly toxic (slightly toxic (>10–100 mg/L))”.
